The target of assay [1] is T1, 5'-lipoxygenase (Mus musculus, UniProt P48999).
T1 construct: Cf1 male mouse hepatic 10% homogenates; from tissue; host or cells: CF1 male mouse liver, 10% homogenate
T1 sequence (P48999 1-674): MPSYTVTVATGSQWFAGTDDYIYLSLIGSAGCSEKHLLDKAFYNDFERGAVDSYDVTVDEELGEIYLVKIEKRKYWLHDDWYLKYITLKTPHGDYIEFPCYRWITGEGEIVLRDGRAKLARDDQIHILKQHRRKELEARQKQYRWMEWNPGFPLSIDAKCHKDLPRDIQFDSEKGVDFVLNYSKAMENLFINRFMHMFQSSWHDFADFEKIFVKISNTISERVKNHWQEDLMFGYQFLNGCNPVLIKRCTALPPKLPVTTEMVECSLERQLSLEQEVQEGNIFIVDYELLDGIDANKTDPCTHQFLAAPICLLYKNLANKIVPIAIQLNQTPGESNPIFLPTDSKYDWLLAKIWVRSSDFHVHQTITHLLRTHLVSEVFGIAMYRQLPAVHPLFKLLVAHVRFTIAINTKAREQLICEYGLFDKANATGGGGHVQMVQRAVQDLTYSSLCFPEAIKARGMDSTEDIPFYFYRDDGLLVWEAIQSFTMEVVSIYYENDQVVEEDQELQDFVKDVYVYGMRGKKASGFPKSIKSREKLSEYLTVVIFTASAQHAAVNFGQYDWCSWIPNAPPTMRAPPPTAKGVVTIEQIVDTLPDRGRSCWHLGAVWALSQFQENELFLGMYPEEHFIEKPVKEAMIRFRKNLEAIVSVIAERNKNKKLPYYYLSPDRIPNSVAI
The assay can be described thus: Mouse hepatic 5'-lipoxygenase activity. Format: biochemical. Particulars: Table VI; mouse hepatic, 60 min incubation; read-out: 5'-lipoxygenase IC50. An excerpt: 1. Cf1 male mouse hepatic 10% homogenates in 0.25M sucrose+0.001MEDTA,pH 7.2.
5'-lipoxygenase Mylari, B.L., et al, J. Med.

Assay [2] deals with Elastase. The assay can be described thus: Human osteoporosis fibroblasts elastase activity. Format: cell-based. The text has this:
2. Elastase- N-succinyl-L-alanyl-L-alanine-p-nitroanilide, pH 8.0, p-nitro anilide 410 nm.

Read-outs that look alike come from different tables or passages of the source.

Regarding `CCCCCCCCCCCCCCCC[N+](C)(C)[BH2-]C(=O)O` [Compound 7, N,N-Dimethylhexadecylamine-carboxyborane], the IC50 in assay [1] was 55.8 µM; in assay [2] (Table VIIIA, osteoporosis fibroblasts in vitro, read-out: Elastase IC-50), 3.86 µM; in assay [2] (Table XI, human osteoporosis fibroblasts, 60 min incubation, read-out: Elastase IC50) it was 3.86 µM.

Values taken from patent US5312816A, “Method of combatting osteoporosis in mammalian subjects, utilizing organic boron compounds” (priority 1993, dated 1994).
